# Data published in BindingDB's records for doi:10.1021/jm00112a034 (Abbott Laboratories, 1991).
# Biological target: dopamine D1 receptor (Cyprinus carpio)
# Test: Concentration required to inhibit 50% dopamine receptor D1 activity using cell free homogenate of carp retina
row,SMILES,EC50
1,NC[C@@H]1OC(c2ccc(Br)cc2)Cc2c1ccc(O)c2O (stereo partly specified),1 nM
2,NC[C@@H]1OC(COc2ccccc2)Cc2c1ccc(O)c2O (stereo partly specified),24 nM
3,OCCCNC[C@@H]1OC(C2CCCCC2)Cc2c1ccc(O)c2O (stereo partly specified),1740 nM
4,Oc1ccc2c(c1O)CC(C1CCCCC1)O[C@H]2CNC1CC1 (stereo partly specified),124 nM
5,COc1cccc(C2Cc3c(ccc(O)c3O)[C@H](CN)O2)c1 (stereo partly specified),6.4 nM
6,C#CCNC[C@@H]1OC(C2CCCCC2)Cc2c1ccc(O)c2O (stereo partly specified),13 nM
7,NC[C@@H]1OC2(CCCCC2)Cc2c1ccc(O)c2O,69 nM
8,NC[C@@H]1OC(Cc2ccccc2)Cc2c1ccc(O)c2O (stereo partly specified),34 nM
9,NC[C@@H]1OC(c2ccc(I)cc2)Cc2c1ccc(O)c2O (stereo partly specified),2 nM
10,NC[C@@H]1OC(COCc2ccccc2)Cc2c1ccc(O)c2O (stereo partly specified),89 nM

# Continued, values first:
row,EC50,SMILES
1,5.2 nM,NC[C@@H]1OC(CCc2ccccc2)Cc2c1ccc(O)c2O (stereo partly specified)
2,6.3 nM,CCCCC1Cc2c(ccc(O)c2O)[C@H](CN)O1 (stereo partly specified)
3,14 nM,CCCCCCC1Cc2c(ccc(O)c2O)[C@H](CN)O1 (stereo partly specified)
4,6.7 nM,NC[C@@H]1OC(CC2CCCC2)Cc2c1ccc(O)c2O (stereo partly specified)
5,142 nM,CC[C@@H]1Cc2c(ccc(O)c2O)[C@H](CN)O1
6,232 nM,CC[C@H]1Cc2c(ccc(O)c2O)[C@H](CN)O1
